Experimental data from PubChem BioAssay AID2060619 (Molecular Pharmacology Branch, DTP, NCI, 2025).

System: 323965-272-R-J2-PDC complex spheroid viability
Assay: Anticancer human tumor 323965-272-R-J2-PDC patient-derived pancreatic carcinoma cell line growth inhibition [CLK]
Details: for IC50: curve of first compound; for viability, T/C: stronger effect = lower value
Description: A high-throughput screen of multi-cell type tumor spheroids was designed to identify active combinations of […] and targeted small molecules. Complex spheroids include a stromal component modeled by human endothelial cells (HUVEC) and fibroblasts modeled by human mesenchymal stem cells (MSCs). The concentration ranges selected for each drug and investigational agent were based upon clinically achievable concentrations if the clinical Cmax of the agent was known.
Compounds. The drugs and investigational agents: cirtuvivint (SM08502; NSC835563), CC-671 (NSC850746), vemurafenib (NSC761431), tapotoclax (NSC804041), sotorasib (NSC818433), adagrasib (NSC831453), MRTX-1133 (NSC836407), BAY2416964 (NSC825713), copanlisib (NSC816437), inavolisib (NSC800729), abemaciclib (NSC768073), osimertinib (NSC779217), entinostat (NSC756642), eltanexor (KPT-8602, NSC794443), venetoclax (NSC766270), ceralasertib (NSC777638), bortezomib (NSC756655), olaparib (NSC753686), talazoparib (NSC767125), alisertib (NSC759677), peposertib (NSC802822), gemcitabine (NSC613327), 5-fluorouracil (NSC19893), SN-38 (NSC673596), oxaliplatin (NSC266046), paclitaxel (NSC125973), and doxorubicin (NSC123127), were obtained from the National Cancer Institute (NCI) Developmental Therapeutics Program Chemical Repository. The FDA-approved anticancer drug set is available from the Developmental Therapeutics Program at https://dtp.cancer.gov/organization/dscb/obtaining/available plates.htm. […] The stock solutions were prepared in dimethyl sulfoxide (DMSO, Sigma-Aldrich, St. Louis, MO, cat. D2650), except for the platinum complexes which were prepared in saline (Quality Biological, Gaithersburg, MD, cat. 114-055-101), at 800-fold the tested concentration and stored at -70 degrees C prior to their use. All drugs and investigational agents were tested over a range starting from a high concentration at or near the clinical Cmax and decreasing in half-log increments. If the clinical Cmax for an agent had not been determined, the highest concentration tested was 10 microM.
Cell Culture. All cells were maintained in an incubator at 37 degrees C and 5% CO2 with 95% humidity. The PDC lines were cultured according to standard operating procedures established by the NCI PDMR. Briefly, all PDCs were thawed and cultured in Matrigel-coated flasks prepared with a working solution of 1X Ham's F-12 nutrient mix, without supplementation (Invitrogen, Waltham, MA, cat. 11765054), 100 U/mL penicillin-streptomycin (Invitrogen, cat. 15140122), and 2.5% Matrigel (Corning Inc., Corning, NY, cat. 354248) for the first three passages. The 947758-054-R-J2-PDC line was cultured in 6B/Colon 1A media, which includes advanced DMEM/F-12 (Thermo Fisher Scientific, cat. 12634028), 10 mM HEPES (Thermo Fisher Scientific, cat. 15630080), 1X GlutaMAX supplement (Thermo Fisher Scientific, cat. 35050061), 0.1 mg/mL primocin (InvivoGen, cat. ant-pm-2), 10% defined fetal bovine serum, heat inactivated (HyClone Laboratories Inc., cat. SH30070.03HI), 1.25 mM N-Acetyl-L-cysteine (Sigma-Aldrich, cat. A9165), 10 mM nicotinamide (Sigma-Aldrich, cat. N0636), 1X B-27 supplement (Thermo Fisher Scientific, cat. 17504044), 1X N-2 supplement (Thermo Fisher Scientific, cat. 17502048), and 10 microM Y-27632 dihydrochloride (Tocris Bioscience, cat. 1254). The 876862-298-R-J1-PDC was cultured in 6E media, which includes all 6B/Colon 1A media components plus 50% L-WRN conditioned media (ATCC, cat. CRL-3276), 50 ng/mL recombinant human EGF recombinant protein (hEGF; Thermo Fisher Scientific, cat. PHG0311), 10 ng/mL recombinant human fibroblast growth factor 10 (hGFG-10; PeproTech, cat. 100-26), 1 ng/mL recombinant human fibroblast growth factor 2 (hFGF-2; PeproTech, cat. 100-18B), and 1 µM prostaglandin E2 (PGE2; Tocris, cat. 2296). The 227483-062-R1-J1-PDC line was cultured in Panc media, containing all 6E components except hFGF-2, with the addition of 500 nM SB-431542 (Selleckchem, cat. S1067) and 10 nM gastrin (Tocris, cat. 3006). […]
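Also: spheroids exposed to agents for seven days before readout.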
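For viability, T/C in this document: percent of DMSO vehicle control wells so 100% = untreated growth.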

`CC1(C)CCC(CN2CCN(c3ccc(C(=O)NS(=O)(=O)c4ccc(NCC5CCOCC5)c([N+](=O)[O-])c4)c(Oc4cnc5[nH]ccc5c4)c3)CC2)=C(c2ccc(Cl)cc2)C1` + CN1CCN(c2cc(C(=O)Nc3cc4cc(-c5cnn(C)c5)ccc4cn3)ccn2)CC1 showed an IC50 (second compound 0.0316 µM) of 4960 nM, an IC50 (second compound 0.1 µM) of 3600 nM and an IC50 (second compound 0.316 µM) of less than 31.6 nM. The IC50 (second compound 1 µM) was less than 31.6 nM, the IC50 (second compound 3.16 µM) was less than 31.6 nM and the IC50 (second compound 10 µM) was less than 31.6 nM. The viability, T/C (second compound 0.0316 µM, first compound 0.0316 µM) was 91.3%, the viability, T/C (second compound 0.0316 µM, first compound 0.1 µM) was 97.7% and the viability, T/C (second compound 0.0316 µM, first compound 0.316 µM) was 93.8%. For the same compound, the viability, T/C (second compound 0.0316 µM, first compound 1 µM) was 92.2%, the viability, T/C (second compound 0.0316 µM, first compound 3.16 µM) was 78.8% and the viability, T/C (second compound 0.0316 µM, first compound 10 µM) was 5.11%. The viability, T/C (second compound 0.1 µM, first compound 0.0316 µM) was 69.6%, the viability, T/C (second compound 0.1 µM, first compound 0.1 µM) was 63.8% and the viability, T/C (second compound 0.1 µM, first compound 0.316 µM) was 65.4%. It also gave a viability, T/C (second compound 0.1 µM, first compound 1 µM) of 68.5%, a viability, T/C (second compound 0.1 µM, first compound 3.16 µM) of 55.8% and a viability, T/C (second compound 0.1 µM, first compound 10 µM) of 5.08%. For the same compound, the viability, T/C (second compound 0.316 µM, first compound 0.0316 µM) was 27.8%, the viability, T/C (second compound 0.316 µM, first compound 0.1 µM) was 24.5% and the viability, T/C (second compound 0.316 µM, first compound 0.316 µM) was 28.6%. The viability, T/C (second compound 0.316 µM, first compound 1 µM) was 27.1%, the viability, T/C (second compound 0.316 µM, first compound 3.16 µM) was 20.2% and the viability, T/C (second compound 0.316 µM, first compound 10 µM) was 4.31%. For the same compound, the viability, T/C (second compound 1 µM, first compound 0.0316 µM) was 3.4%, the viability, T/C (second compound 1 µM, first compound 0.1 µM) was 3.32% and the viability, T/C (second compound 1 µM, first compound 0.316 µM) was 4.86%. It also gave a viability, T/C (second compound 1 µM, first compound 1 µM) of 2.95%, a viability, T/C (second compound 1 µM, first compound 3.16 µM) of 2.45% and a viability, T/C (second compound 1 µM, first compound 10 µM) of 2.47%. For the same compound, the viability, T/C (second compound 3.16 µM, first compound 0.0316 µM) was 3.55%, the viability, T/C (second compound 3.16 µM, first compound 0.1 µM) was 3.34% and the viability, T/C (second compound 3.16 µM, first compound 0.316 µM) was 3.03%. The viability, T/C (second compound 3.16 µM, first compound 1 µM) was 2.11%, the viability, T/C (second compound 3.16 µM, first compound 3.16 µM) was 1.06% and the viability, T/C (second compound 3.16 µM, first compound 10 µM) was 0.14%. The viability, T/C (second compound 10 µM, first compound 0.0316 µM) was 4.06%, the viability, T/C (second compound 10 µM, first compound 0.1 µM) was 3.26% and the viability, T/C (second compound 10 µM, first compound 0.316 µM) was 3.77%. For the same compound, the viability, T/C (second compound 10 µM, first compound 1 µM) was 2.06%, the viability, T/C (second compound 10 µM, first compound 3.16 µM) was 0.92% and the viability, T/C (second compound 10 µM, first compound 10 µM) was 3.22%.
